Several values for one entry are separate records, joined by “and”; a condition that tells them apart may be missing. Equal values may be shown once. Square brackets hold non-standard residues; d marks the D form. Peptide text beside a SMILES is read from it. * marks the point of attachment. pGlu = O=C1CC[C@@H](C(=O)O)N1; Octanoyl = CCCCCCCC(=O)*
Legend:
[1] = test system: B cells, T cells, eosinophils, neutrophils, macrophages/dendritic cells in BALF; assay: LPS-induced acute lung injury / ARDS mouse model: BALF differential cell count by FACS; assay type: in vivo, BALB/c mice; design: key to Macrophages / B cells / T cells / Eosinophils / Neutrophils: (+) indicates activation; (−) indicates inhibition; settings: for B cells / Eosinophils / Macrophages / Neutrophils / T cells: BALF
Experimental: In order to test the efficacy of ZEP3 sodium on lung inflammation, the lipopolysaccharide (LPS)-induced acute lung injury model was used. In particular, LPS was administered intratracheally at doses of 10 or 40 mg/kg body weight (BW) corresponding to 0.2 or 0.8 mg/mouse, respectively.
ZEP3 sodium was administered by inhalation (INH) at doses of 25 or 250 mg/kg BW (0.5 or 5 mg/mouse, respectively), or intratracheally (IT) at doses of 5 or 20 mg/kg BW (0.1 or 0.4 mg/mouse, respectively) 6 hours after LPS administration and its effect was measured 72 hours following administration in the branchial alveolar fluid (BALF) using FACS instrumentation. […]

[2] = Oxygen saturation in mouse model of LPS-inflamed lungs (Rodent Pulse Oximeter); assay type: in vivo, Balb/C female mice; settings: for Oxygen saturation, group mean: mean of 10 mice; for Oxygen saturation, individual mouse: single animals
Experimental: Evaluation of the effect of ZEP3Na administration via inhalation on oxygen saturation in a mouse model of inflamed lungs by the lipopolysaccharides (LPS) was performed. Oxygen saturation testing was performed at several time points on mice that have been anesthetized by isoflurane. A sensor was attached to the hind foot of the mice and the percentage of oxygen in the blood was measured using the Rodent Pulse Oximeter instrument (Kent Scientific).
Following LPS intratracheal instillation, a marked reduction in blood oxygen saturation levels was detected. ZEP3Na was then administered by inhalation at two doses 6 h and 14 h after LPS administration and the effect of ZEP3Na on blood oxygen saturation was monitored 0, 2, 6, 12, 24 and 48 hours following ZEP3Na administration. Saturation data was analyzed by ANOVA followed by Tukey-Kramer test. Significance level was defined as ∝=0.05.

[3] = LPS 0.8 mg + ZEP3Na (INH) 0.5 mg
[4] = administered by inhalation following LPS instillation
[5] = administered intratracheally following LPS instillation
[6] = Group 2: LPS 800 μg + ZEP3Na 10 mg by inhalation at 6 h, time point 0 h
[7] = Group 2: LPS 800 μg + ZEP3Na 10 mg by inhalation at 6 h, time point 2 h
[8] = Group 2: LPS 800 μg + ZEP3Na 10 mg by inhalation at 6 h, time point 6 h
[9] = Group 2: LPS 800 μg + ZEP3Na 10 mg by inhalation at 6 h, time point 12 h
[10] = Group 2: LPS 800 μg + ZEP3Na 10 mg by inhalation at 6 h, time point 24 h
[11] = Group 2: LPS 800 μg + ZEP3Na 10 mg by inhalation at 6 h, time point 48 h
[12] = Group 3: LPS 800 μg + ZEP3Na 10 mg by inhalation at 6 h + 14 h, time point 0 h
[13] = Group 3: LPS 800 μg + ZEP3Na 10 mg by inhalation at 6 h + 14 h, time point 2 h
[14] = Group 3: LPS 800 μg + ZEP3Na 10 mg by inhalation at 6 h + 14 h, time point 6 h
[15] = Group 3: LPS 800 μg + ZEP3Na 10 mg by inhalation at 6 h + 14 h, time point 12 h
[16] = Group 3: LPS 800 μg + ZEP3Na 10 mg by inhalation at 6 h + 14 h, time point 24 h
[17] = Group 3: LPS 800 μg + ZEP3Na 10 mg by inhalation at 6 h + 14 h, time point 48 h
[18] = Group 4: LPS 800 μg + ZEP3Na 50 mg by inhalation at 6 h, time point 0 h
[19] = Group 4: LPS 800 μg + ZEP3Na 50 mg by inhalation at 6 h, time point 2 h
[20] = Group 4: LPS 800 μg + ZEP3Na 50 mg by inhalation at 6 h, time point 6 h
[21] = Group 4: LPS 800 μg + ZEP3Na 50 mg by inhalation at 6 h, time point 12 h
[22] = Group 4: LPS 800 μg + ZEP3Na 50 mg by inhalation at 6 h, time point 24 h
[23] = Group 4: LPS 800 μg + ZEP3Na 50 mg by inhalation at 6 h, time point 48 h
[24] = Group 5: LPS 800 μg + ZEP3Na 50 mg by inhalation at 6 h + 14 h, time point 0 h
[25] = Group 5: LPS 800 μg + ZEP3Na 50 mg by inhalation at 6 h + 14 h, time point 2 h
[26] = Group 5: LPS 800 μg + ZEP3Na 50 mg by inhalation at 6 h + 14 h, time point 6 h
[27] = Group 5: LPS 800 μg + ZEP3Na 50 mg by inhalation at 6 h + 14 h, time point 12 h
[28] = Group 5: LPS 800 μg + ZEP3Na 50 mg by inhalation at 6 h + 14 h, time point 24 h
[29] = Group 5: LPS 800 μg + ZEP3Na 50 mg by inhalation at 6 h + 14 h, time point 48 h
[30] = administration by inhalation, 800 μg LPS

CCCCCCCC(=O)NCCCC[C@H](NC(=O)[C@H](Cc1c[nH]c2ccccc12)NC(=O)[C@H](CC(N)=O)NC(=O)[C@@H]1CCC(=O)N1)C(=O)O [ZEP3Na, pGlu-Asn-Trp-Lys(Octanoyl)-ONa] ([pGlu]NWK(Octanoyl)-OH)
B cells [1, 3]: +
Eosinophils [1, 3]: −
Macrophages [1, 3]: +
Neutrophils [1, 3]: −
T cells [1, 3]: −
B cells ([1]; LPS 0.8 mg + ZEP3Na (INH) 5 mg): +
Eosinophils ([1]; LPS 0.8 mg + ZEP3Na (INH) 5 mg): −
Macrophages ([1]; LPS 0.8 mg + ZEP3Na (INH) 5 mg): +
Neutrophils ([1]; LPS 0.8 mg + ZEP3Na (INH) 5 mg): −
T cells ([1]; LPS 0.8 mg + ZEP3Na (INH) 5 mg): −
levels of T cells, eosinophils, neutrophils [1, 4]: significantly inhibited the expression and reduced the levels
levels of macrophages and B cells [1, 4]: increased the levels
levels of eosinophils [1, 5]: significantly inhibited the expression and reduced the levels
levels of macrophages [1, 5]: increased the levels
Oxygen saturation, group mean [2, 6]: 97.2%
Oxygen saturation, individual mouse [2, 6]: 99% (4×) and 93% and 97% and 98% (2×) and 95% (2×)
Oxygen saturation, group mean [2, 7]: 70.0%
Oxygen saturation, individual mouse [2, 7]: 77% and 67% and 78% (2×) and 61% and 71% and 59% and 72% and 74% and 63%
Oxygen saturation, group mean [2, 8]: 86.2%
Oxygen saturation, individual mouse [2, 8]: 81% and 88% (2×) and 87% (2×) and 91% and 82% and 84% and 85% and 89%
Oxygen saturation, group mean [2, 9]: 93.5%
Oxygen saturation, individual mouse [2, 9]: 92% (2×) and 96% and 95% (2×) and 93% and 90% and 94% (3×)
Oxygen saturation, group mean [2, 10]: 89.0%
Oxygen saturation, individual mouse [2, 10]: 86% (2×) and 87% and 89% and 88% and 90% (2×) and 83% and 92% and 99%
Oxygen saturation, group mean [2, 11]: 92.9%
Oxygen saturation, individual mouse [2, 11]: 91% (5×) and 94% and 97% (3×) and 89%
Oxygen saturation, group mean [2, 12]: 96.2%
Oxygen saturation, individual mouse [2, 12]: 97% (2×) and 96% and 99% (2×) and 94% (2×) and 93% and 95% and 98%
Oxygen saturation, group mean [2, 13]: 71.1%
Oxygen saturation, individual mouse [2, 13]: 70% and 68% and 71% (2×) and 80% and 73% and 64% and 75% and 62% and 77%
Oxygen saturation, group mean [2, 14]: 87.1%
Oxygen saturation, individual mouse [2, 14]: 86% (2×) and 88% (2×) and 89% (2×) and 92% and 81% and 82% and 90%
Oxygen saturation, group mean [2, 15]: 92.5%
Oxygen saturation, individual mouse [2, 15]: 92% (2×) and 90% (2×) and 94% and 97% and 95% and 88% and 91% and 96%
Oxygen saturation, group mean [2, 16]: 92.1%
Oxygen saturation, individual mouse [2, 16]: 96% (2×) and 94% and 88% and 86% and 93% (3×) and 92% and 90%
Oxygen saturation, group mean [2, 17]: 93.0%
Oxygen saturation, individual mouse [2, 17]: 91% (4×) and 92% (2×) and 97% (2×) and 94% (2×)
Oxygen saturation, group mean [2, 18]: 97.2%
Oxygen saturation, individual mouse [2, 18]: 95% (3×) and 97% (3×) and 99% (4×)
Oxygen saturation, group mean [2, 19]: 72.7%
Oxygen saturation, individual mouse [2, 19]: 69% and 81% and 72% (2×) and 73% and 79% (2×) and 65% and 66% and 71%
Oxygen saturation, group mean [2, 20]: 86.7%
Oxygen saturation, individual mouse [2, 20]: 86% (3×) and 90% and 88% (2×) and 87% (2×) and 85% and 84%
Oxygen saturation, group mean [2, 21]: 94.5%
Oxygen saturation, individual mouse [2, 21]: 93% and 89% and 94% (3×) and 95% and 96% (3×) and 98%
Oxygen saturation, group mean [2, 22]: 94.0%
Oxygen saturation, individual mouse [2, 22]: 93% (2×) and 94% and 95% (2×) and 90% and 99% and 92% (2×) and 97%
Oxygen saturation, group mean [2, 23]: 97.0%
Oxygen saturation, individual mouse [2, 23]: 93% and 95% and 98% (5×) and 99% and 97% and 96%
Oxygen saturation, group mean [2, 24]: 96.6%
Oxygen saturation, individual mouse [2, 24]: 97% (3×) and 94% (2×) and 96% and 99% (2×) and 98% and 95%
Oxygen saturation, group mean [2, 25]: 71.8%
Oxygen saturation, individual mouse [2, 25]: 63% and 71% and 69% and 92% and 73% and 75% and 72% and 76% and 66% and 61%
Oxygen saturation, group mean [2, 26]: 86.8%
Oxygen saturation, individual mouse [2, 26]: 88% (2×) and 90% and 84% and 89% and 86% (2×) and 85% (2×) and 87%
Oxygen saturation, group mean [2, 27]: 94.0%
Oxygen saturation, individual mouse [2, 27]: 92% and 94% (3×) and 90% and 93% and 95% (2×) and 96% and 97%
Oxygen saturation, group mean [2, 28]: 93.8%
Oxygen saturation, individual mouse [2, 28]: 90% and 91% (3×) and 93% (2×) and 98% (2×) and 99% and 94%
Oxygen saturation, group mean [2, 29]: 97.1%
Oxygen saturation, individual mouse [2, 29]: 99% (3×) and 97% (3×) and 91% and 98% (2×) and 96%
elevation in oxygen saturation levels as compared to LPS with no treatment [2, 30]: ≤ 20%
oxygen saturation levels that have been reduced by LPS [2, 30]: significantly increased
time following treatment at which increase in oxygen saturation is statistically significant ([2]; administration by inhalation, LPS model): 12 h
animal weight ([2]; throughout the experiment): substantially constant
